These results are taken from the SangsterLogP compilation.

The nature of the first series: method code RP-HPLC, from DOI: 10.1016/s0045-6535(96)00355-4.
The logP is the decadic logarithm of the partition coefficient of the neutral form, usually between octanol and water. Consider `OC(c1ccc(Cl)cc1)(c1ccc(Cl)cc1)C(Cl)(Cl)Cl`, for which the logP was found to be 4.93.

In turn, `CCNc1nc(NC(C)(C)C)nc(OC)n1` returned a logP of 2.95. The same measure, in the same setting: then `CC(C)N(C(=O)CCl)c1ccccc1`, with 2.36; and `CCNc1nc(N)nc(Cl)n1`, with 1.07; and `CCNc1nc(NC(C)C)nc(OC)n1`, with 2.29. Compound `CCC(CC)Nc1c([N+](=O)[O-])cc(C)c(C)c1[N+](=O)[O-]` displayed a lipophilicity (logP) of 4.78.

Assay in the next series: not given
Compound `CCCCN(CC)C(=O)SCCC` yielded a logP of 3.27. Still for that read-out and setting: as for `CCCN(CCC)C(=O)SCC`, the figure is 2.77. As for `Clc1ccc(C(c2ccccc2Cl)C(Cl)Cl)cc1` (centres undefined), the log partition coefficient (logP) was 5.34. Still for that read-out and setting: as for `Clc1ccc(C(c2ccccc2Cl)C(Cl)(Cl)Cl)cc1` (centres undefined), the figure is 5.53; as for `CCOP(=S)(OCC)Oc1ccc2c(C)c(Cl)c(=O)oc2c1`, 4.01. On the same count and under the same terms, then `ClC(Cl)=C(c1ccc(Cl)cc1)c1ccccc1Cl`, with 5.45. Take `CCSC(=O)N(CC(C)C)CC(C)C`: the logP turned out to be 3.45. Still for that read-out and setting: as for `CCSC(=O)N1CCCCCC1`, the figure is 2.49; as for `CCCSC(=O)N(CCC)CCC`, 3.19; as for `CCOP(=S)(OCC)SCSC(C)(C)C`, 3.98. On the same count and under the same terms, then `COP(=O)(OC)O/C(=C\Cl)c1cc(Cl)c(Cl)cc1Cl`, with 3.87; and `CCSC(=O)N(CC)C1CCCCC1`, with 3.25. Consider `CCc1cccc(CC)c1N(COC)C(=O)CCl`, for which the logP came out at 2.95.
